Legend:
[1] = system: human aortic smooth muscle cells (HASMCs); test: Cytotoxicity (cell viability), HASMCs; format: cell-based; details: compared with gliotoxin and A1 to A9
Method: (§1) Most ETP compounds have been known to be cytotoxic to animal cells. Accordingly, the inventors of the present invention determined a safe concentration range of the epidithiodioxopiperazine compound or its derivatives in vascular cells. For this, human aortic smooth muscle cells (HASMCs) and human aortic endothelial cells (HAECs) were pretreated for 2 hours with various concentrations of gliotoxin or chaetocin, and A1 to A9 that are ETP derivatives according to the present invention, and cultured in a fresh medium for 24 hours followed by cell viability assay (FIGS. 6 to 10).

[2] = system: human aortic endothelial cells (HAECs); test: Cytotoxicity (cell viability), HAECs; format: cell-based; details: compared with gliotoxin and A1 to A9
Method: as §1

[3] = system: NADPH oxidase (NOX); test: NADPH oxidase activity assay (whole cell superoxide production); format: cell-based, human; details: HASMCs with PDGF-B and HAECs with VEGF-A; until concentrations increased up to 500 nM
Method: Whole cell superoxide production was measured using an enhanced luminescence system (Diogenes, National Diagnostics). For the assay, the serum-starved cells were pre-incubated with a 100 μl Diogene reagent at 37° C. for 5 minutes. After being stimulated by the indicated growth factor, chemiluminescence was detected every second for 10 minutes with a TD-20/20 Luminometer (Turner Biosystems).
When HASMCs and HAECs were stimulated with PDGF-B and VEGF-A, respectively, the NOX activity increased approximately twofold. […] Thus, it was seen that these ETP compounds function as hydrogen peroxide reductase capable of replacing PrxII in both vascular cells, but the mechanism was not the inhibition of hydrogen peroxide producer NOX.

[4] = system: SK-MEL28 melanoma cells; format: cell-based, human; details: at a concentration of 100 nM; tested 0, 100, 200, 500 and 1000 nM
Method: Specifically, after chaetocin and chetomin was treated with SK-MEL28 melanoma cells at different concentrations (0, 100, 200, 500 and 1000 nM), the cell viability was checked, and the result is shown in FIG. 54A.

[5] = system: yeast thioredoxin (Trx) / yeast thioredoxin reductase (TR) system; test: Peroxidase activity assay (hydrogen peroxide reduction), Trx/TR system; format: biochemical
Method: (§2) The peroxidase activity assay for the epidithiodioxopiperazine derivatives according to the present invention (hereinafter, referred to as ETP compounds) was performed according to known methods [Korean Patent No. 10-0953326]. A standard peroxidase reaction for spectrophotometric assay was carried out using a 200 μl reaction mixture of 1 mM EDTA-containing 50 mM Hepes-NaOH buffer solution (pH 7.0) including 250 μM NADPH, 3 μM yeast thioredoxin (Trx), 1.5 μM yeast thioredoxin reductase (TR), 25 μM ETP compound and […] of hydrogen peroxide. For the comparison with a glutathione (GSH)-dependent peroxidase reaction, GSH (1 mM) and yeast glutathione reductase (GSH reductase; GR) (1 Unit) were added instead of yeast Trx and TR. Each reaction was initiated by adding hydrogen peroxide, and the NADPH oxidation was monitored for 12 minutes at 30° C. according to absorbance decrease at 340 nm using an Agilent UV8453 spectrophotometer (Hewlett Packard, USA). The initial reaction rate was calculated using the linear portion of the curve and expressed as the amount of NADPH oxidized per minute.
The chemical feature of the epidithiodioxopiperazine compound of the present invention or its derivatives is the intramolecular disulfide bridge present in the epidithiodioxopiperazine ring moiety. Cellular peroxidase reduces hydrogen peroxide utilizing the electrons derived from NADPH via two electron-transfer routes, that is, Trx/TR or GSH/GR, therefore, spectrophotometric assay was performed for the hydrogen peroxide-reducing activity in the presence of each system, and the results are shown in FIGS. 1 to 5.

[6] = system: GSH / yeast glutathione reductase (GR) system; test: Peroxidase activity assay (hydrogen peroxide reduction), GSH/GR system; format: biochemical; details: 25 μM ETP compound, GSH 1 mM, GR 1 Unit
Method: as §2
The chemical feature of the epidithiodioxopiperazine compound of the present invention or its derivatives is the intramolecular disulfide bridge present in the epidithiodioxopiperazine ring moiety. […]

[7] = system: SK-MEL-28 (SK28) cells; test: Melanoma proliferation and migration assay, SK28; format: cell-based, human; details: 100 nM, 1 hour pretreatment
Method: The extent of cell proliferation was measured using a WST-1 cell proliferation assay kit (Roche Diagnostics, USA) according to the protocol of the manufacturer. The number of cells was expressed as an absorbance value at 450 nm averaged from 3 wells after subtracting the turbidity at 600 nm. The chemotactic transmigration assay was performed in a 24-well Transwell culture chamber (Costar; polycarbonate membrane insert with 8-μm pore size). The bottom of the insert was coated with gelatin B (1 mg/ml) and air-dried for 1 hour. Retroviruses or transfection complexes were treated to melanoma cells (6×10^3). After 24 hours, the infected or transfected melanoma cells were serum-starved for 18 hours. A 20% FBS solution was added to bottom chambers including a basal medium containing 0.5% BSA. The upper chamber wells were each filled with a basal medium including 0.5% BSA. The Transwell chamber was incubated for 12 hours in a 37° C./5% CO2 incubator. After the incubation, the non-migrating cells at the top of the filter were removed. The cells that migrated onto the bottom of filter were fixed and stained with 0.6% hematoxylin and 0.5% eosin. The stained cells were photographed and counted. The number of migrating cells was averaged from 3 wells. […]

[8] = system: B16F10 melanoma cells; test: Metastasis of B16F10 melanoma cells to lung in mouse; format: in vivo; details: i.p. 5 times over 10 days after i.v. injection of B16F10 cells
Method: After B16F10 cells were temporarily transfected with PrxII siRNA for 24 hours and trypsinized, the cells were resuspended in a Hank's balanced salt solution (HBSS). The cell suspension was injected by intravenous injection to a C57/BL6 mouse (1×10^6 cells per mouse). The mouse was sacrified after 10 days, and the lung was removed after transcardia perfusion-fixation with a heparinized saline solution including 3.7% formaldehyde. The removed lung was paraffin embedded and sectioned using a rotary microtome (Leica RM2255). Two serial tissue sections (4 μm in thickness) were stained with haematoxylin and eosin. The melanoma tumor nodules metastasized from the surface of the lung and the HE-stained tissue sections were counted. In order to verify the effects of gliotoxin (GT), chaetocin and chetomin, the melanoma cells were intravenously injected to the C57/BL6 mouse, and then gliotoxin (300 mg/kg) was intraperitoneally injected for 5 times over 10 days.

SMILES	relative toxicity to HASMCs [1]	relative toxicity to HAECs [2]	NOX activity [3]	toxicity (cell viability) [4]	activity in the presence of a Trx/TR system relative to the activity of GT [5]	hydrogen peroxide-reducing activity in the presence of a Trx/TR system ([5]; 25 μM ETP compound, 30° C., NADPH oxidation at 340 nm) [nmol/min]	hydrogen peroxide-reducing activity in the presence of a GSH/GR system [6] [nmol/min]	proliferation and migration responding to serum stimulation, SK28 [7]	metastasis of B16F10 melanoma cells to lung (tumor nodules) [8]
CN1C(=O)[C@@]23C[C@]4([C@]56C[C@@]78SS[C@@](CO)(C(=O)N7[C@H]5Nc5ccccc56)N(C)C8=O)c5ccccc5N[C@@H]4N2C(=O)[C@]1(CO)SS3 [chaetocin]	relatively less toxic	relatively less toxic	did not inhibit	toxicity was not shown	–	–	–	–	–
CN1C(=O)[C@]2(Cc3cn([C@]45C[C@@]67SS[C@@](CO)(C(=O)N6[C@H]4Nc4ccccc45)N(C)C7=O)c4ccccc34)SS[C@@]1(CO)C(=O)N2C [chetomin]	–	–	–	toxicity was not shown	approximately two-fold higher	8.62 ± 0.51	2.53 ± 0.79	effectively impeded	significantly reduced
